The results in this text go back to patent US20050112607A1, “Rapid and sensitive detection of protein aggregation” (priority 1999, published 2005).

Experiment [1] can be described thus: Colloid/colloid linkage via biotin/streptavidin, color change. The class given is binding. To be noted: streptavidin added to biotin-SAM colloids. As to the method: A set of gold colloids was derivatized with self-assembled monolayers that incorporated biotin-thiols (SAM forming species included C11, 3 ethylene glycol units, then biotin) along with C16 carboxy-terminated thiols (a mixed SAM). Streptavidin, which has four binding sites for biotin, or a random protein (GST) was added to the colloid solutions.

The target in experiment [2] is GST (Schistosoma japonicum, UniProt P08515). The experiment in a line: Colloid/colloid color change assay with GST-bound NTA-Ni colloids (irrelevant protein). The class given is binding. The note with it: 100 ul or 50 ul protein per well, room temperature. As to the method: (§1) 600 microliters colloids, derivatized with a self-assembled monolayer that presents nitrilo tri-acetic acid, NTA (for the capture of histidine-tagged proteins), was mixed with 60 microliters of 500 micromolar histidine-tagged RGD-motif-containing peptide. 600 microliters of a second set of NTA-Ni presenting colloids was mixed with 60 ul of a 500 uM solution of GST, an irrelevant protein, as a negative control. Colloids were spun down and resuspended in phosphate buffer to remove residual unbound protein or peptide. Endostatin and Angiostatin, two proteins implicated in angiogenesis and suspected of binding to regions of vitronectin, such as the RGD peptide, were prepared by dialysis into phoshate-buffered saline solution and then 1:10 dilution into PBS from a stock concentration of 1 mg/mL.
Chain of GST (P08515 whole entry): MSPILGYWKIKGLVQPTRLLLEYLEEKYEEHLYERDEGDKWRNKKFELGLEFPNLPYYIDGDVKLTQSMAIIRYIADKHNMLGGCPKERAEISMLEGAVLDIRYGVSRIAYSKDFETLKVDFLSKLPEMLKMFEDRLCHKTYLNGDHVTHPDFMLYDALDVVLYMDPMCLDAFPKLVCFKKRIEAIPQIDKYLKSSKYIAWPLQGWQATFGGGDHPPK
(§2) 400 ul phosphate buffer (pH 7.4), 200 ul either RGD-bound colloids or GST-bound colloids, and either 100 ul endostatin or angiostatin, 50 ul endostatin or angiostatin/50 ul phosphate buffer, or 100 ul phosphate buffer (as a negative control) were added to each well of a crystallization dish. Color change was monitored over time at room temperature. […] The histidine-tagged proteins were then eluted using imidazole, and the samples were analyzed by SDS-PAGE. […]

In experiment [3] the test system is histidine-tagged RGD-motif-containing peptide. The experiment in a line: Colloid/colloid color change assay with RGD-peptide-bound NTA-Ni colloids. It is filed as binding. The note with it: 100 ul or 50 ul protein per well, room temperature, after approximately 15 minutes. As to the method:
as §1, §2

The target of experiment [4] is resin-immobilized GST (Schistosoma japonicum, UniProt P08515). The experiment in a line: NTA-Ni agarose resin binding, imidazole elution, SDS-PAGE (GST). As to the method:
(§3) 400 ul phosphate buffer (pH 7.4), 200 ul either RGD-bound colloids or GST-bound colloids, and either 100 ul endostatin or angiostatin, 50 ul endostatin or angiostatin/50 ul phosphate buffer, or 100 ul phosphate buffer (as a negative control) were added to each well of a crystallization dish. Color change was monitored over time at room temperature. […] The color change was more pronounced in the well that contained 100 ul endostatin than in the well that contained 50 ul endostatin/50 ul phospate buffer. […] Row A included colloids and angiostatin. Row B included colloids with endostatin. (Rows C and D are empty wells). Columns 1-3 have RGD peptide immobilized on the colloids. […] have an irrelevant protein, GST, immobilized on the colloid. Columns 1 and 4 contain […] of the relevant drug (endostatin or angiostatin). […] The results were verified by gel electrophoresis. The RGD peptide and histidine-tagged GST were bound to a small amount of NTA-Ni agarose resin at saturating concentration. Endostatin was incubated with the resin and allowed to bind to the protein on the resin. The histidine-tagged proteins were then eluted using imidazole, and the samples were analyzed by SDS-PAGE. […] This assay could be easily adapted for screening of drug candidates that either mimic the RGD-binding characteristic of endostatin or bind to the RGD-binding domains on endostatin. […]

The subject of experiment [5] is resin-immobilized RGD peptide. The experiment in a line: NTA-Ni agarose resin binding, imidazole elution, SDS-PAGE (RGD peptide). As to the method:
as §3

Chain of resin-immobilized GST (P08515 whole entry): as above

For Streptavidin, the “Color change of biotin-presenting colloid solution” value in experiment [1] was “immediately turned blue”.
For angiostatin, the “Color change of GST-bound colloids” value in experiment [2] is “No color change occurred”. For the same substance, in experiment [3], the “Color change from red to blue of RGD-peptide-bound colloids” value is reported as “No color change occurred”.
Take endostatin: the “Color change of GST-bound colloids” value in experiment [2] is “No color change occurred”. In addition, the “Color change from red to blue of RGD-peptide-bound colloids” value in experiment [3] is given as “a color change from red to blue was visible”. In experiment [4], the “Binding to resin-immobilized GST (SDS-PAGE)” value was “did not bind to the resin-immobilized GST”. Also, the “Binding to resin-immobilized RGD peptide (SDS-PAGE)” value in experiment [5] is “bound to the resin-immobilized RGD peptide”.
